Experiments:
Format in all cases: in vivo
[1] = system: velvetleaf (Abutilon theophrasti); test: Test A pre-/postemergence: velvetleaf; conditions: for Velvetleaf plant response rating: Postemergence; for Plant response rating, Velvetleaf: Preemergence
Method in brief: (§1)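 Soil medium was loam blended with sand; treatments pre- and postemergence were applied concurrently, postemergence at one- to two-leaf stage. Approximately ten days in greenhouse preceded visual comparison with untreated controls, scored 0 (no effect) to 100 (complete control).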

[2] = system: sedge, umbrella (small-flower umbrella sedge, Cyperus difformis); test: Test C flooded paddy test: sedge, umbrella; conditions: scale 0 to 100 (0 no effect, 100 complete control)
Method in brief: (§2)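 Plants were grown to the 2-leaf stage, pots flooded to 3 cm above soil, and test compounds applied directly to the paddy water, with that depth held throughout. After 13 to 15 days in a greenhouse, injury was visually rated against controls on a 0 (no effect) to 100 (complete control) scale.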

[3] = system: ducksalad (Heteranthera limosa); test: Test C flooded paddy test: ducksalad; conditions: scale 0 to 100 (0 no effect, 100 complete control)
Method in brief: as §2

rice (Oryza sativa) = test: Test C flooded paddy test: rice; conditions: scale 0 to 100 (0 no effect, 100 complete control)
Method in brief: as §2

[4] = system: crabgrass, large (large crabgrass, Digitaria sanguinalis); test: Test A pre-/postemergence: crabgrass, large; conditions: for Crabgrass, Large plant response rating: Postemergence; for Plant response rating, Crabgrass, Large: Preemergence
Method in brief: as §1

[5] = system: morningglory (Ipomoea spp.); test: Test A pre-/postemergence: morningglory; conditions: for Morningglory plant response rating: Postemergence; for Plant response rating, Morningglory: Preemergence
Method in brief: as §1

[6] = system: wheat (Triticum aestivum); test: Test A pre-/postemergence: wheat; conditions: for Wheat plant response rating: Postemergence; for Plant response rating, Wheat: Preemergence
Method in brief: as §1

corn (Zea mays) = test: Test A pre-/postemergence: corn; conditions: for Corn plant response rating: Postemergence; for Plant response rating, Corn: Preemergence
Method in brief: as §1

[7] = system: barnyardgrass (Echinochloa crus-galli); test: Test A pre-/postemergence: barnyardgrass; conditions: for Barnyardgrass plant response rating: Postemergence; for Plant response rating, Barnyardgrass: Preemergence
Method in brief: as §1

[8] = system: barnyardgrass (Echinochloa crus-galli); test: Test C flooded paddy test: barnyardgrass; conditions: scale 0 to 100 (0 no effect, 100 complete control)
Method in brief: as §2

[9] = system: pigweed (Amaranthus retroflexus); test: Test A pre-/postemergence: pigweed; conditions: for Pigweed plant response rating: Postemergence; for Plant response rating, Pigweed: Preemergence
Method in brief: as §1

[10] = system: foxtail, giant (giant foxtail, Setaria faberii); test: Test A pre-/postemergence: foxtail, giant; conditions: for Foxtail, Giant plant response rating: Postemergence; for Plant response rating, Foxtail, Giant: Preemergence
Method in brief: as §1

[11] = 125 g ai/ha, 0 to 100 scale, 0 is no effect, 100 is complete control
[12] = 500 g ai/ha, visual rating on 0 to 100 scale (0 no effect, 100 complete control), approximately ten days
[13] = 125 g ai/ha, 0 to 100 scale where 0 is no effect and 100 is complete control
[14] = 500 g ai/ha, 0 to 100 scale, 0 is no effect, 100 is complete control
[15] = Flood (flooded paddy test), 125 g ai/ha, visual rating after 13 to 15 days
[16] = Flood (flooded paddy test), 250 g ai/ha, visual rating after 13 to 15 days
[17] = 125 g ai/ha, 0 to 100 scale (0 no effect, 100 complete control)

Cc1nn(-c2cccc(I)c2)nc1C(=O)c1cccc(C(F)(F)F)c1 [Compound 90]
0: Velvetleaf plant response rating [1, 11] | Velvetleaf plant response rating [1, 12] | Plant response rating, Velvetleaf [1, 13] | Plant response rating, Velvetleaf [1, 14] | Plant response rating, Sedge, Umbrella [2, 15] | Plant response rating, Sedge, Umbrella [2, 16] | Plant response rating, Sedge, Umbrella ([2]; Flood, 31 g ai/ha) | Plant response rating, Sedge, Umbrella ([2]; Flood, 62 g ai/ha) | Plant response rating, Ducksalad [3, 15] | Plant response rating, Ducksalad [3, 16] | Plant response rating, Ducksalad ([3]; Flood, 31 g ai/ha) | Plant response rating, Ducksalad ([3]; Flood, 62 g ai/ha) | Plant response rating, Rice (rice (Oryza sativa); [15]) | Plant response rating, Rice (rice (Oryza sativa); [16]) | Plant response rating, Rice (rice (Oryza sativa); Flood, 31 g ai/ha) | Plant response rating, Rice (rice (Oryza sativa); Flood, 62 g ai/ha) | Crabgrass, Large plant response rating [4, 11] | Plant response rating, Crabgrass, Large [4, 17] | Plant response rating, Crabgrass, Large [4, 14] | Morningglory plant response rating [5, 11] | Plant response rating, Morningglory [5, 13] | Plant response rating, Morningglory [5, 14] | Wheat plant response rating [6, 11] | Wheat plant response rating [6, 12] | Plant response rating, Wheat [6, 13] | Plant response rating, Wheat [6, 14] | Corn plant response rating (corn (Zea mays); [11]) | Plant response rating, Corn (corn (Zea mays); [17]) | Plant response rating, Corn (corn (Zea mays); [14]) | Barnyardgrass plant response rating [7, 11] | Plant response rating, Barnyardgrass [7, 17] | Plant response rating, Barnyardgrass [7, 14] | Plant response rating, Barnyardgrass [8, 15] | Plant response rating, Barnyardgrass [8, 16] | Plant response rating, Barnyardgrass ([8]; Flood, 31 g ai/ha) | Plant response rating, Barnyardgrass ([8]; Flood, 62 g ai/ha) | Pigweed plant response rating [9, 11] | Plant response rating, Pigweed [9, 13] | Plant response rating, Pigweed [9, 14] | Foxtail, Giant plant response rating [10, 11] | Plant response rating, Foxtail, Giant [10, 13] | Plant response rating, Foxtail, Giant [10, 14]
30: Pigweed plant response rating [9, 12]
10: Crabgrass, Large plant response rating [4, 12] | Morningglory plant response rating [5, 12] | Corn plant response rating (corn (Zea mays); [12]) | Barnyardgrass plant response rating [7, 12] | Foxtail, Giant plant response rating [10, 12]

Cc1nn(-c2ccccc2I)nc1C(=O)c1cccc(C(F)(F)F)c1 [Compound 91]
30: Pigweed plant response rating [9, 12]
10: Velvetleaf plant response rating [1, 12] | Crabgrass, Large plant response rating [4, 12] | Corn plant response rating (corn (Zea mays); [11]) | Corn plant response rating (corn (Zea mays); [12]) | Barnyardgrass plant response rating [7, 12] | Pigweed plant response rating [9, 11] | Foxtail, Giant plant response rating [10, 12]
0: Velvetleaf plant response rating [1, 11] | Plant response rating, Velvetleaf [1, 13] | Plant response rating, Velvetleaf [1, 14] | Plant response rating, Sedge, Umbrella [2, 15] | Plant response rating, Sedge, Umbrella [2, 16] | Plant response rating, Sedge, Umbrella ([2]; Flood, 31 g ai/ha) | Plant response rating, Sedge, Umbrella ([2]; Flood, 62 g ai/ha) | Plant response rating, Ducksalad [3, 15] | Plant response rating, Ducksalad [3, 16] | Plant response rating, Ducksalad ([3]; Flood, 31 g ai/ha) | Plant response rating, Ducksalad ([3]; Flood, 62 g ai/ha) | Plant response rating, Rice (rice (Oryza sativa); [15]) | Plant response rating, Rice (rice (Oryza sativa); [16]) | Plant response rating, Rice (rice (Oryza sativa); Flood, 31 g ai/ha) | Plant response rating, Rice (rice (Oryza sativa); Flood, 62 g ai/ha) | Crabgrass, Large plant response rating [4, 11] | Plant response rating, Crabgrass, Large [4, 17] | Plant response rating, Crabgrass, Large [4, 14] | Morningglory plant response rating [5, 11] | Morningglory plant response rating [5, 12] | Plant response rating, Morningglory [5, 13] | Plant response rating, Morningglory [5, 14] | Wheat plant response rating [6, 11] | Wheat plant response rating [6, 12] | Plant response rating, Wheat [6, 13] | Plant response rating, Wheat [6, 14] | Plant response rating, Corn (corn (Zea mays); [17]) | Plant response rating, Corn (corn (Zea mays); [14]) | Barnyardgrass plant response rating [7, 11] | Plant response rating, Barnyardgrass [7, 17] | Plant response rating, Barnyardgrass [7, 14] | Plant response rating, Barnyardgrass [8, 15] | Plant response rating, Barnyardgrass [8, 16] | Plant response rating, Barnyardgrass ([8]; Flood, 31 g ai/ha) | Plant response rating, Barnyardgrass ([8]; Flood, 62 g ai/ha) | Plant response rating, Pigweed [9, 13] | Plant response rating, Pigweed [9, 14] | Foxtail, Giant plant response rating [10, 11] | Plant response rating, Foxtail, Giant [10, 13] | Plant response rating, Foxtail, Giant [10, 14]
